Laboratory results published in patent US20220017512A1 (SHANGHAI ENNOVABIO PHARMACEUTICALS CO., LTD., priority 2018, published 2022).

Legend:
Assay type in all cases: biochemical
Recombinant human TRKA = molecular target: T1, Recombinant human TRKA (Homo sapiens, UniProt P04629); assay: In vitro activity test on TRKA kinase (HTRF KinEASE TK); conditions: 14.68 μM ATP, 40 min
T1 construct: purchased Carna Biosciences
Protocol: (§1) Biological Test Example 1 In Vitro Activity Test on TRKA, TRKB, TRKC Kinase
(§2) Recombinant human TRKA, TRKB, TRKC proteins were purchased from Carna Biosciences. HTRF KinEASE TK kit was purchased from Cisbio Bioassays. Synergy Neo 2 of Biotek was used to read the plate.
(§3) The tested compound was subjected to 3-fold serial dilution to reach a final concentration of 1 μM to 0.05 nM (10 concentrations), duplicates for each concentration; and the DMSO concentration in the detection reaction was 1%.
0.2 ng/μL TRKA protein kinase, 1 μM TK Substrate-biotin polypeptide substrate, 14.68 μM ATP, 1× enzymatic buffer, 5 mM MgCl2, and 1 mM DTT. The detection plate was White Proxiplate384-Plus plate (PerkinElmer), and incubated at room temperature for 40 min, and the assay volume was 10 μL.
(§4) 10 μL of detection reagent was added to the plate (containing 0.125 μM SA-XL665 and 5 μL 1×TK-Antibody) and incubated overnight at room temperature, and Synergy Neo 2 was used to read the plate.
(§5) The 665/620 Ratio was converted according to the following formula into inhibition rate (%)=(1−Ratiotest/Ratiomax)×100%. Ratiomax was a positive control without tested compound, and Ratiotest was the value of each concentration of different compounds. IC50 (nM) data was obtained by 4 parameter curve fitting (see Table 1).

Recombinant human TRKB = molecular target: T2, Recombinant human TRKB (Homo sapiens, UniProt Q16620); assay: In vitro activity test on TRKB kinase (HTRF KinEASE TK); conditions: 4.77 μM ATP, 50 min
T2 construct: purchased Carna Biosciences
T2 sequence (Q16620 32-822): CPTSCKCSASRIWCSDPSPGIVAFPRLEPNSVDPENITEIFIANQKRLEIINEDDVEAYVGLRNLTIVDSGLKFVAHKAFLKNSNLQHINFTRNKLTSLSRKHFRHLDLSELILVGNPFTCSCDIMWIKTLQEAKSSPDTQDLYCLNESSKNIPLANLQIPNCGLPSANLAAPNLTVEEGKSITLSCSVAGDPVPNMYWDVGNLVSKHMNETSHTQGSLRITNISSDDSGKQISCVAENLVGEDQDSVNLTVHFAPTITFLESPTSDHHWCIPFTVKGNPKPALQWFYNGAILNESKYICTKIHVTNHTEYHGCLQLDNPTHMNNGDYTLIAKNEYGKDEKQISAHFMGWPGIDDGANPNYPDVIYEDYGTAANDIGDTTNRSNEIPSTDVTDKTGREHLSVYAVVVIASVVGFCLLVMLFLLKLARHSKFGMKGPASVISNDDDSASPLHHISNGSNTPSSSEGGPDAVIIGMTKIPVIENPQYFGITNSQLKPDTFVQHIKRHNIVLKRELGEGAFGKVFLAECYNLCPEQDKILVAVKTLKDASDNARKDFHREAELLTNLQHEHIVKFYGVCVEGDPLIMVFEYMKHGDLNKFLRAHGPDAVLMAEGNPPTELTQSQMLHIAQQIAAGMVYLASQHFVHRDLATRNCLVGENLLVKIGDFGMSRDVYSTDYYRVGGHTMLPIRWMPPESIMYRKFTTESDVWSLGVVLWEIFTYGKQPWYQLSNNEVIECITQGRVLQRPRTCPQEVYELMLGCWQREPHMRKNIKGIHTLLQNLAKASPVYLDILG
Protocol: as §1, §2, §3
0.037 ng/μL TRKB protein kinase, 1 μM TK Substrate-biotin polypeptide substrate, 4.77 μM ATP, 1× enzymatic buffer, 5 mM MgCl2, and 1 mM DTT. The detection plate was White Proxiplate 384-Plus plate (PerkinElmer), and incubated at room temperature for 50 min, and the assay volume was 10 μL.
as §4, §5

Recombinant human TRKC = molecular target: T3, Recombinant human TRKC (Homo sapiens, UniProt Q16288); assay: In vitro activity test on TRKC kinase (HTRF KinEASE TK); conditions: 25.64 μM ATP, 40 min
T3 construct: purchased Carna Biosciences
T3 sequence (Q16288 32-839): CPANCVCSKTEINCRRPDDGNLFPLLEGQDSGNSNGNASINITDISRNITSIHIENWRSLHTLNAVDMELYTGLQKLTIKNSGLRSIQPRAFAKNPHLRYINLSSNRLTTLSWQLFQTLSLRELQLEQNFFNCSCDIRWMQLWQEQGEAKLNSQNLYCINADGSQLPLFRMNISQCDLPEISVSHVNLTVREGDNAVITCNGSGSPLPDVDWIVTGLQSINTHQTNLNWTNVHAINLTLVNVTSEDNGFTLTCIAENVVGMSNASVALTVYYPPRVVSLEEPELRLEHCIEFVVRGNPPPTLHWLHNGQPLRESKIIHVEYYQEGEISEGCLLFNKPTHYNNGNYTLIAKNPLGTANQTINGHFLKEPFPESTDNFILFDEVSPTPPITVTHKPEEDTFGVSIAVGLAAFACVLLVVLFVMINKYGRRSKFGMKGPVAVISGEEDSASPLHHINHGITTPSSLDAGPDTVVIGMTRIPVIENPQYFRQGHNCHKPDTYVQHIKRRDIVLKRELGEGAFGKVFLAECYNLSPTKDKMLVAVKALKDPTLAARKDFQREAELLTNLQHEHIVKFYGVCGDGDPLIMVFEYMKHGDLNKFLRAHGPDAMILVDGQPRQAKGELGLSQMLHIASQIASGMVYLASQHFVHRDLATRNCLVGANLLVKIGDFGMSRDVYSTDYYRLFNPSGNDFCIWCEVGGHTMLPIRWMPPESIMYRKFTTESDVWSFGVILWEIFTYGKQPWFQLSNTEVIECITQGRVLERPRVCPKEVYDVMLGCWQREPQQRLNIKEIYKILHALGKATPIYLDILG
Protocol: as §1, §2, §3
0.037 ng/μL TRKC protein kinase, 1 μM TK Substrate-biotin polypeptide substrate, 25.64 μM ATP, 1× enzymatic buffer, 5 mM MgCl2, and 1 mM DTT. The detection plate was White Proxiplate 384-Plus plate (PerkinElmer), and incubated at room temperature for 40 min, and the assay volume was 10 μL.
as §4, §5

[1] = molecular target: T4, recombinant human TRKA (G595R) (Homo sapiens, UniProt P04629, G595R); assay: In vitro activity test on mutant TRKA (G595R) (HTRF KinEASE TK); conditions: 4.5 μM ATP, 30 min
T4 construct: purchased SignalChem
T4 sequence (P04629 33-796 G595R): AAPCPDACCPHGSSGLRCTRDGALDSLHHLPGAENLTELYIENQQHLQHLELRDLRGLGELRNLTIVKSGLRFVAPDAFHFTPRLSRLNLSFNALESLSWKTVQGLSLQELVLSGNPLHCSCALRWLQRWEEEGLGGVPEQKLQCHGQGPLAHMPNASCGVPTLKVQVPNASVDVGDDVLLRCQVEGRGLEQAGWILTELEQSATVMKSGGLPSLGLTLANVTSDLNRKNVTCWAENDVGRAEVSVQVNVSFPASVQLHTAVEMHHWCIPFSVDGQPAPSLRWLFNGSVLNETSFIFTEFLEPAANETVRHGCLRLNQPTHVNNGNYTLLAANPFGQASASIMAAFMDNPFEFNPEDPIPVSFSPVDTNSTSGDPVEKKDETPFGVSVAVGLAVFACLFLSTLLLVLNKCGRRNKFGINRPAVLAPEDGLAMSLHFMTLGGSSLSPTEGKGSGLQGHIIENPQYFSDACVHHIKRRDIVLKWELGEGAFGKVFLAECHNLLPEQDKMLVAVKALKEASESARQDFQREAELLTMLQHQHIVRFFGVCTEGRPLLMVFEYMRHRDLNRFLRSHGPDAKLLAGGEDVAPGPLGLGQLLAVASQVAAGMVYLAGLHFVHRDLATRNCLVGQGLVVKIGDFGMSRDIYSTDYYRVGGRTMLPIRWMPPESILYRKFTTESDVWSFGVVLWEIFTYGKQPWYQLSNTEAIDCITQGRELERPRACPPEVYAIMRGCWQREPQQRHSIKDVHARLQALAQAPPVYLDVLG
Protocol: Biological Test Example 2 In Vitro Activity Test on Mutant TRKA (G595R), TRKA (G667C) and TRKC (G623R)
The recombinant human TRKA (G595R), TRKA (G667C) and TRKC (G623R) proteins were purchased from SignalChem. HTRF kinEASE TK kit was purchased from CisbioBioassays. Synergy Neo 2 of Biotek was used to read the plate.
The tested compound was subjected to 4-fold serial dilution to reach a final concentration of 1 μM to 0.004 nM (10 concentrates), duplicates for each concentration; and 1% DMSO was present in the detection reaction.
0.12 ng/μL TRKA (G595R) kinase, 1 μM TK Substrate-biotin polypeptide substrate, 4.5 μM ATP, 1× enzymatic buffer, 5 mM MgCl2, and 1 mm DTT. The detection plate was White Proxiplate384-Plus plate (PerkinElmer), and incubated at room temperature for 30 min, and the assay volume was 10 μL.
as §4
The value of 665/620 Ratio minus the value of negative control wells without enzyme, then the obtained value was converted according to the following formula into inhibition rate (%)=(1−Ratiotest/Ratiomax)×100%. Ratiomax was a positive control without tested compound, and Ratiotest was the value of each concentration of different compounds. IC50 (nM) data was obtained by 4 parameter curve fitting (see Table 1).

T1 sequence (P04629 33-796): as the sequence (P04629 33-796 G595R) above, with R563G counted along it

| Structure (SMILES) | IC50 (Recombinant human TRKA) | IC50 (Recombinant human TRKB) | IC50 (Recombinant human TRKC) | IC50 [1] |
| --- | --- | --- | --- | --- |
| O=C(Nc1ccnc2ccc(N3CCC[C@@H]3c3cc(F)ccc3F)nc12)c1cnc(N2CC[C@H](O)C2)nc1 [Example 8, N-(6-((R)-2-(2,5-difluorophenyl)pyrrolidin-1-yl)-1,5-naphthyridin-4-yl)-2-((S)-3-hydroxypyrrolidin-1-yl)pyrimidin-5-carboxamide] | < 10 nM | < 1 nM | < 10 nM |  |
| O[C@H]1CCN(c2nc(-c3ncnc4ccc(N5C[C@@H](F)C[C@@H]5c5cc(F)ccc5F)nc34)no2)C1 [Example 68, (S)-1-(3-(6-((2R,4S)-2-(2,5-difluorophenyl)-4-fluoropyrrolidin-1-yl)pyrido[3,2-d]pyrimidin-4-yl)-1,2,4-oxadiazol-5-yl)pyrrolidin-3-ol] | < 1 nM | < 10 nM | < 10 nM | < 10 nM |
| Fc1cnc(Cl)c([C@H]2CCCN2c2ccc3ncc(F)c(-c4cnn(C5CCNCC5)c4)c3n2)c1 [Example 90, (R)-2-(2-(2-Chloro-5-fluoropyridin-3-yl)pyrrolidin-1-yl)-7-fluoro-8-(1-(piperidin-4-yl)-1H-pyrazol-4-yl)-1,5-naphthyridine] | < 1 nM | < 10 nM | < 10 nM | < 1 nM |
| Fc1ccc(F)c([C@H]2C[C@H](F)CN2c2ccc3ncnc(-c4noc(C5CCNCC5)n4)c3n2)c1 [Example 81, 3-(6-((2R,4S)-2-(2,5-difluorophenyl)-4-fluoropyrrolidin-1-yl)pyrido[3,2-d]pyrimidin-4-yl)-5-(piperidin-4-yl)-1,2,4-oxadiazole] | < 1 nM | < 10 nM | < 10 nM | < 10 nM |
| O=C1N(c2ccnc3ccc(N4C[C@@H](F)C[C@@H]4c4cc(F)ccc4F)nc23)CC12CCNCC2 [Example 94, 2-(6-((2R,4S)-2-(2,5-difluorophenyl)-4-fluoropyrrolidin-1-yl)-1,5-naphthyridin-4-yl)-2,7-diazaspiro[3.5] nonane-1-one] | < 1 nM | < 1 nM | < 1 nM | < 1 nM |
| Fc1ccc(F)c([C@H]2C[C@H](F)CN2c2ccc3nncc(-c4cnn(C5CCNCC5)c4)c3n2)c1 [Example 64, 6-((2R,4S)-2-(2,5-difluorophenyl)-4-fluoropyrrolidin-1-yl)-4-(1-(piperidin-4-yl)-1H-pyrazol-4-yl)pyrido[3,2-c]pyridazine] | < 1 nM |  |  |  |
| O=c1n(-c2ccnc3ccc(N4C[C@@H](F)C[C@@H]4c4cc(F)ccc4F)nc23)ccn1C1CCNCC1 [Example 95, 1-(6-((2R,4S)-2-(2,5-difluorophenyl)-4-fluoropyrrolidin-1-yl)-1,5-naphthyridin-4-yl)-3-(piperidin-4-yl)-1,3-dihydro-2H-imidazol-2-one] | < 1 nM | < 10 nM | < 1 nM | < 1 nM |
| Fc1ccc(F)c([C@H]2C[C@H](F)CN2c2ccc3ncc(Cl)c(-c4cnc(N5CCNCC5)s4)c3n2)c1 [Example 60, 5-(3-Chloro-6-((2R,4S)-2-(2,5-difluorophenyl)-4-fluoropyrrolidin-1-yl)-1,5-naphthyridin-4-yl)-2-(piperazin-4-yl)thiazole] | < 1 nM | < 10 nM | < 1 nM |  |
| O[C@@H]1CCN(c2ccnc3ccc(N4CCC[C@@H]4c4cc(F)ccc4F)nc23)C1 [Example 3, (R)-1-(6-((R)-2-(2,5-difluorophenyl)pyrrolidin-1-yl)-1,5-naphthyridin-4-yl)pyrrolidin-3-ol] | < 150 nM | < 500 nM | < 500 nM |  |
| OC1CCC(Nc2ccnc3ccc(N4CCC[C@@H]4c4cc(F)ccc4F)nc23)C1 (stereo partly drawn) [Example 1, 3-((6-((R)-2-(2,5-difluorophenyl)pyrrolidin-1-yl)-1,5-naphthyridin-4-yl)amino)cyclopentane-1-ol] | < 10 nM | < 50 nM | < 10 nM | < 50 nM |
| Fc1ccc(F)c([C@H]2C[C@H](F)CN2c2ccc3ncc(Cl)c(-c4cnn([C@H]5CCCNC5)c4)c3n2)c1 [Example 55, 7-chloro-2-((2R,4S)-2-(2,5-difluorophenyl)-4-fluoropyrrolidin-1-yl)-8-(1-((S)-piperidin-3-yl)-1H-pyrazol-4-yl)-1,5-naphthyridine] | < 10 nM | < 500 nM | < 500 nM |  |
| O=C(Nc1c(Cl)cnc2ccc(N3C[C@@H](F)C[C@@H]3c3cc(F)ccc3F)nc12)C1CCNCC1 [Example 62, N-(3-Chloro-6-((2R,4S)-2-(2,5-difluorophenyl)-4-fluoropyrrolidin-1-yl)-1,5-naphthyridin-4-yl) piperidin-4-carboxamide] | < 1 nM |  |  |  |
| O[C@H]1CCN(c2ccnc3ccc(N4CCC[C@@H]4c4cc(F)ccc4F)nc23)C1 [Example 5, (S)-1-(6-((R)-2-(2,5-difluorophenyl)pyrrolidin-1-yl)-1,5-naphthyridin-4-yl)pyrrolidin-3-ol] | < 100 nM | < 500 nM | < 150 nM |  |
| CC1(O)CCN(c2ncc(-c3ncnc4ccc(N5C[C@@H](F)C[C@@H]5c5cc(F)ccc5F)nc34)cn2)C1 (stereo partly drawn) [Example 85, 1-(5-(6-((2R,4S)-2-(2,5-difluorophenyl)-4-fluoropyrrolidin-1-yl)pyrido[3,2-d]pyrimidine-4-yl)pyrimidin-2-yl)-3-methylpyrrolidin-3-ol] | < 1 nM | < 1 nM | < 1 nM | < 10 nM |
| O=C(O)[C@H]1CCN(c2ncc(-c3ncnc4ccc(N5C[C@@H](F)C[C@@H]5c5cc(F)ccc5F)nc34)cn2)C1 [Example 87, (S)-1-(5-(6-((2R,4S)-2-(2,5-difluorophenyl)-4-fluoropyrrolidin-1-yl)pyrido[3,2-d]primidin-4-yl)pyrimidin-2-yl)pyrrolidin-3-carboxylic acid] | < 1 nM | < 1 nM | < 1 nM | < 1 nM |
| O=C1CC(n2cc(-c3ccnc4ccc(N5C[C@@H](F)C[C@@H]5c5cc(F)ccc5F)nc34)cn2)CCN1 (stereo partly drawn) [Example 19, 4-(4-(6-((2R,4S)-2-(2,5-difluorophenyl)-4-fluoropyrrolidin-1-yl)-1,5-naphthyridin-4-yl)-1H-pyrazol-1-yl)piperidin-2-one] | < 10 nM | < 500 nM | < 500 nM |  |
| OCCNc1ccnc2ccc(N3CCC[C@@H]3c3cc(F)ccc3F)nc12 [Example 6, (R)-2-((6-(2-(2,5-Difluorophenyl)pyrrolidin-1-yl)-1,5-naphthyridin-4-yl)amino)ethan-1-ol] | < 100 nM | < 500 nM | < 500 nM |  |
| OC1CCN(c2nc(-c3c(F)cnc4ccc(N5C[C@@H](F)C[C@@H]5c5cc(F)ccc5F)nc34)no2)CC1 [Example 84, 1-(3-(6-((2R,4S)-2-(2,5-difluorophenyl)-4-fluoropyrrolidin-1-yl)-3-fluoro-1,5-naphthyridin-4-yl)-1,2,4-oxadiazol-5-yl)piperidin-4-ol] | < 1 nM | < 10 nM | < 1 nM |  |
| COc1ccc(CNc2ccnc3ccc(N4CCC[C@@H]4c4cc(F)ccc4F)nc23)cc1 [Example 9, (R)-6-(2-(2,5-Difluorophenyl)pyrrolidin-1-yl)-N-(4-methoxybenzyl)-1,5-naphthyridin-4-amine] | < 50 nM | < 50 nM | < 50 nM |  |
| CN(C)c1ccnc2ccc(N3CCC[C@@H]3c3cc(F)ccc3F)nc12 [Example 4, (R)-6-(2-(2,5-difluorophenyl)pyrrolidin-1-yl)-N,N-dimethyl-1,5-naphthyridin-4-amine] | < 10 nM | < 10 nM | < 10 nM |  |
